# Data: article PMC9657749, “Cytotoxic Activity and Docking Studies of 2-arenoxybenzaldehyde N-acyl Hydrazone and 1,3,4-Oxadiazole Derivatives against Various Cancer Cell Lines” (Molecules, 2022)
# Legend:
# [1] = tested on: A549 (lung carcinoma) cells; assay: Cell Titer Glo cell viability assay, A549; assay type: cell-based; settings: Homo sapiens, A549, 48 h, 25-300 µM, triplicate, means
# Description: (§1) To determine the effect of N-acyl hydrazones and 2,5 substituted 1,3,4-oxadiazole derivatives, a dose-response curve was produced for each and every molecule based on the viability of A549 (lung carcinoma), PC-3 (prostate adenocarcinoma), and MDA-MB-231(breast adenocarcinoma) cancerous cell lines by using the Cell Titer Glo assay. The MRC-5 (lung fibroblast) cell line was used as the non-cancerous control group. For 48 h, the cytotoxic effects of novel derivatives on all of the cell lines were investigated in a dose-dependent manner.
# (§2) In this study, four adherent cell lines were used: three from different cancer types and one from a regular fibroblast. The cancerous cells were human breast carcinoma (MDA-MB-231, ATCC code: HTB-26), human prostatic carcinoma (PC-3, ATCC code: CRL-1435), and human lung cancer epithelial cells (A549, ATCC code: CCL-185), while the fibroblasts in the control group were human fetal lung (MRC-5, ATCC code: CCL-171) cells. All cells were checked every few weeks for various sources of contamination.
# (§3) […], MRC-5, and PC-3 cell lines were cultured in T75 flasks with high glucose DMEM medium (Pan Biotech, Aidenbach, Germany), and A549 cells were cultured with RPMI-1640 (Pan Biotech) containing 10% fetal bovine serum (Gibco, Waltham, MA, USA), 1% penicillin-streptomycin (Gibco), and 1% L-glutamine (Gibco) at 37 °C with 5% CO2. All the cells were removed from the flask with Trypsin/EDTA 0.25% (Gibco) when they reached 80% density.
# (§4) To test the effect of different doses on cells, all types of cells were seeded into 96-well plates at a density of eight thousand cells in 100 µL volume per well. Cells were incubated at 37 °C with 5% CO2 for […]. After 24 h in the incubator, the medium on top of each well was discharged. All of the cells were treated with 25, 50, 100, 200, or 300 µM of fifteen N-acyl hydrazones and twelve 2,5-substituted 1,3,4-oxadiazole in a dose-increasing manner. Molecules were studied in triplicate for each concentration. To assess the viability of non-treated cells, a control group was placed in the setup with only cells and DMSO control treatments without any candidate molecules introduced. Plates were incubated for 48 h, and Cell Titer Glo reagent (Promega) was added on top of each well. Cells were then evaluated in terms of viability with the Cell Titer-Glo Luminescent Cell Viability Assay. Luminescence signals were detected with the SpectraMax i3x Multimode Detection Platform to obtain the cell viability percentages.
# MDA-MB-231 cells = assay: Scratch assay (cell migration), MDA-MB-231; assay type: cell-based, human; settings: 40 µM 1d, 120 µM 1e, 30 µM 2a, 0, 24, 48 h
# Description: (§5) The dosages for MDA-MB-231 were 40 µM for 1d, 120 µM for 1e, and 30 µM for 2a. The dosages for A-549 were 55 µM for 1d, 15 µM for 1e, and 15 µM for 2a. Three photos were taken: one immediately after the application, one 24 h later, and one 48 h later. The images of each time stamp for all three molecules can be seen in Figure 4 for the A549 cell line and Figure 5 for the MDA-MB-231 cell line.
# (§6) To make comparisons, each application was performed in triplicate for all three molecules; the averages and standard deviations were calculated, and the p values were calculated by considering the sample sizes.
# (§7) MDA-MB-231 and A-549 cells were seeded for the scratch assay. A total of 100.000 cells were cultured in 1.5 mL complete medium per well on a 6-well plate, as detailed above. The 6-well plates were then incubated for 24 h at 37 °C. After 24 h, accumulated cells were scraped out with the tip of a 200 µL pipette. After discarding the media on top of the cells, the cells were treated for 48 h with three molecules: 1d, 1e, and 2a.
# (§8) The dosages for the MDA-MB-231 cell line were 40 µM for 1d, 120 µM for 1e, and 30 µM for 2a. The dosages for the A-549 cell line were 55 µM for 1d, 15 µM for 1e, and 15 µM for 2a.
# (§9) The cell states were evaluated under the microscope, and markings were made to obtain photos from the same location during the follow-up. Images of the determined reference points were captured under the microscope immediately after treatment, 24 h later, and 48 h later.
# A-549 cells = assay: Scratch assay (cell migration), A549; assay type: cell-based, human; settings: 55 µM 1d, 15 µM 1e, 15 µM 2a, 0, 24, 48 h
# Description: as §5, §6, §7, §8, §9
# [2] = tested on: MDA-MB-231 (breast adenocarcinoma) cells; assay: Cell Titer Glo cell viability assay, MDA-MB-231; assay type: cell-based, human; settings: MDA-MB-231, 48 h, 25-300 µM, triplicate, means
# Description: as §1, §2, §3, §4
# [3] = tested on: MRC-5 (lung fibroblast) cells; assay: Cell Titer Glo cell viability assay, MRC-5 non-cancerous control; assay type: cell-based; settings: Homo sapiens, MRC5, MRC-5 non-cancerous fibroblasts, 48 h, 25-300 µM, triplicate, means
# Description: as §1, §2, §3, §4
# [4] = tested on: PC-3 (prostate adenocarcinoma) cells; assay: Cell Titer Glo cell viability assay, PC-3; assay type: cell-based, human; settings: PC-3, 48 h, 25-300 µM, triplicate, means
# Description: as §1, §2, §3, §4
SMILES,IC50 [1] [µM],"Antimetastatic effect / wound healing rate, scratch assay (MDA-MB-231 cells)","Antimetastatic effect / wound healing rate, scratch assay (A-549 cells)",IC50 ([2]; Homo sapiens) [µM],IC50 [2] [µM],IC50 [3] [µM],"IC50 ([4]; Homo sapiens, 48 h) [µM]",IC50 [4] [µM]
O=C(N/N=C/c1ccccc1Oc1ccccc1)c1ccco1 [1d],49.8,did not show a significant antimetastatic effect,did not show a significant antimetastatic effect,31.5,31.5,44.7,9.39,9.39
c1ccc(Oc2ccccc2-c2nnc(-c3ccccc3)o2)cc1 [2a],29.3,did not show a significant antimetastatic effect,did not show a significant antimetastatic effect,24,,74.5,66,
O=C(N/N=C/c1ccccc1Oc1ccc(Cl)cc1)c1ccccc1 [1k],122,,,32.7,,66.9,46.4,
O=C(N/N=C/c1ccccc1Oc1ccccc1)c1ccc(Cl)cc1 [1b],72.8,,,138,,24.4,25.3,
O=C(N/N=C/c1ccccc1Oc1ccccc1)c1ccccc1 [1a],28.7,,,53,,16.9,47.8,
Clc1ccc(Oc2ccccc2-c2nnc(-c3ccc(Cl)cc3)o2)cc1 [2l],36.3,,,22.7,,51.9,38.4,
O=C(N/N=C/c1ccccc1Oc1ccc(Cl)cc1)c1cccnc1 [1m],71.8,,,55.5,,37.9,38.1,
c1ccc(Oc2ccccc2-c2nnc(-c3cccnc3)o2)cc1 [2c],109,,,42.6,,12.8,121,
Clc1ccc(Oc2ccccc2-c2nnc(-c3cccnc3)o2)cc1 [2m],137,,,108,,124,124,
Cc1nnsc1C(=O)N/N=C/c1ccccc1Oc1ccc(C#N)cc1 [1j],26.6,,,25.9,,37.1,18.4,
N#Cc1ccc(Oc2ccccc2-c2nnc(-c3ccco3)o2)cc1 [2i],72.9,,,23.1,,23.1,41.4,
Cc1nnsc1C(=O)N/N=C/c1ccccc1Oc1ccc(Cl)cc1 [1o],89.7,,,100,,7.78,27,
Clc1ccc(-c2nnc(-c3ccccc3Oc3ccccc3)o2)cc1 [2b],152,,,46.9,,36,82.2,
N#Cc1ccc(Oc2ccccc2-c2nnc(-c3ccccc3)o2)cc1 [2f],45.8,,,32.7,,141,34.2,
N#Cc1ccc(Oc2ccccc2/C=N/NC(=O)c2ccco2)cc1 [1i],208,,,20.7,,31.7,84.6,
O=C(N/N=C/c1ccccc1Oc1ccc(Cl)cc1)c1ccc(Cl)cc1 [1l],39.4,,,77.7,,14.6,30.2,
Cc1nnsc1C(=O)N/N=C/c1ccccc1Oc1ccccc1 [1e],13.4,did not show a significant antimetastatic effect,did not show a significant antimetastatic effect,108,,87,18.1,
Clc1ccc(Oc2ccccc2-c2nnc(-c3ccco3)o2)cc1 [2n],28.8,,,30.4,,35.6,25.6,
c1ccc(Oc2ccccc2-c2nnc(-c3ccco3)o2)cc1 [2d],102,,,78.6,,40.1,54.3,
N#Cc1ccc(Oc2ccccc2/C=N/NC(=O)c2ccc(Cl)cc2)cc1 [1g],31.8,,,45.1,,62.8,66.5,
N#Cc1ccc(Oc2ccccc2-c2nnc(-c3cccnc3)o2)cc1 [2h],78.6,,,38.2,,23.1,78.2,
O=C(N/N=C/c1ccccc1Oc1ccc(Cl)cc1)c1ccco1 [1n],39.4,,,37.9,,50.6,30.4,
N#Cc1ccc(Oc2ccccc2/C=N/NC(=O)c2ccccc2)cc1 [1f],36.9,,,77.2,,56.8,65.9,
N#Cc1ccc(Oc2ccccc2/C=N/NC(=O)c2cccnc2)cc1 [1h],73,,,65.8,,66.9,78.3,
Clc1ccc(Oc2ccccc2-c2nnc(-c3ccccc3)o2)cc1 [2k],90,,,79.2,,58.3,65.8,
N#Cc1ccc(Oc2ccccc2-c2nnc(-c3ccc(Cl)cc3)o2)cc1 [2g],64.8,,,55.7,,16,127,
O=C(N/N=C/c1ccccc1Oc1ccccc1)c1cccnc1 [1c],208,,,50.8,,43.5,86,
